Test results published in patent publication US12629359B2 (UNIVERSITA' DEGLI STUDI DI BRESCIA, priority 2020, dated 2026).
Entries after “also recorded” stand apart in the source; their conditions may differ.

Tested on: alpha-synuclein aggregation in SK—N—SH cells
Experiment: Alpha-synuclein aggregation after glucose deprivation in SK-N-SH alpha-synuclein stable clones (immunocytochemistry)
Assay type: cell-based, human
Procedure: Human neuroblastoma SK—N—SH full length (fl) alpha-synuclein stable clones were seeded onto poly-D-lysine-coated glass coverslides in 24-well plates and were grown in complete medium comprising Dulbecco's modified Eagle's medium with 1000 mg glucose/l supplemented with 10% heat-inactivated fetal bovine serum, 100 μg/ml penicillin and 100 μg/ml streptomycin. Cells were maintained at 37° C. under a humidified atmosphere of 5% CO2 and […]. At 80% confluence, cells underwent glucose deprivation (GD) in order to induce alpha-synuclein aggregation (Bellucci, A.; et al. Journal of neurochemistry 2008, 106, 560-577). Briefly, GD was performed through an incubation of the cells with Hank's balanced salt solution supplemented with 2 mM glutamine and 10% heat-inactivated fetal bovine serum, for 1 h at 37° C. […] After 24 h of treatment, cells were fixed by incubating for 15 min in 4% paraformaldehyde with 4% sucrose in 1 M PBS, pH 7.4. The fixed cells were then stored in PBS-containing 0.05% sodium azide. Slides were incubated for 1 h at room temperature in blocking solution [2% w/v bovine serum albumin (BSA) plus 3% v/v normal goat serum in PBS], then overnight at 4° C. with the primary antibody (Syn211 antibody against alpha-synuclein) at the optimal working dilution. On the following day, cells were incubated for 1 h at room temperature with the Cy3-conjugated secondary antibody diluted in 0.1% Triton X-100 PBS plus BSA 1 mg/ml. Finally, cell nuclei were counterstained with Hoechst 33258 dye, and the coverslips were mounted onto glass slides using Vectashield.

Q: How did the “alpha-synuclein aggregates seen in images after GD” value (10 μM, 24 h, vs non-treated (NT) cells, preliminary) turn out when `COC(=O)[C@@H](c1ccc(C)cc1)C1CCCCN1.Cl` (stereo partly drawn) [I-threo, threo methyl 2-(piperidin-2-yl)-2-(p-tolyl)acetate hydrochloride] was run?
A: no aggregates were observed

Q: What about the “formation of alpha-synuclein inclusions after GD (immunofluorescence intensity and average particle size)” value (10 μM, 24 h after 1 h glucose deprivation, vs untreated, hydrochloride) of the same molecule?
A: significantly reduce the formation of alpha-synuclein inclusions; also recorded: significantly reduce alpha-synuclein aggregation in vitro

Q: And the EC50 (Homo sapiens, SK-N-SH cells, read-out: EC50 in reducing alpha-synuclein aggregation)?
A: 0.431 µM

Q: And the “efficacy (% effect) in reducing alpha-synuclein aggregation, compared with MPH” value (SK-N-SH cells)?
A: almost comparable

Q: And the “EC50 fold lower than that of MPH” value (SK-N-SH cells, I-threo vs MPH)?
A: 200 fold
